Assay results from US12295964B2, “Treating pain associated with chemotherapy-induced peripheral neuropathy” (MEDICON PHARMACEUTICALS, INC., priority 2021, dated 2025).
“And” between values parts separate entries of the source, which are not always exact repeats. Equal entries are not always repeated. Where two headings read alike, the source gives them in different places.

Assays:
[1] = test system: paclitaxel-induced CIPN in mice; assay: Cold allodynia (acetone test) in paclitaxel-induced CIPN; assay type: in vivo, mouse
Protocol: For cold allodynia, mice with paclitaxel-induced CIPN were treated with PS 5% or vehicle for 15 days after the induction of CIPN. The acetone test was used. Briefly, acetone was applied onto the plantar surface of each hind paw. The time each mouse spent licking, lifting, and/or shaking the hind paw recorded over 60 seconds was the score for cold allodynia. Measurements were performed on day-8 (before the first paclitaxel injection), the day of starting treatment (day 0) and then on day 15.

[2] = test system: paclitaxel-induced CIPN in C57/BL/6J mice; assay: Comparison with sulindac, lidocaine and pregabalin in paclitaxel CIPN, mechanical allodynia (PWT, von Frey)
Protocol: CIPN was established by administration of paclitaxel into C57/BL/6J mice. The paclitaxel was administered into all study groups below: • 1. Group 1: paclitaxel plus vehicle (n=8) • 2. […] Group 4: paclitaxel plus 0.7% sulindac (n=8) • 5. Group 5: paclitaxel plus 5% lidocaine cream (n=8) • 6.
Regarding the treatment with lidocaine: 5% lidocaine cream (a positive control) was applied once to both hind paws of the mice 30 minutes before measurement of PWT.
To determine the outcome of treatment, assessment of mechanical allodynia was performed. […] Mechanical and cold allodynia are determined at least one day apart in the same animal.
Briefly, for mechanical allodynia, pain threshold responses were measured using the well-established method of von Frey filaments in line with that performed in the earlier Examples. The PWT test was performed on day-8 (before the first dose of paclitaxel), the day of starting treatment (day 0, at which CIPN was fully established) and day 14 (treatment continued until day 15). The mechanical threshold, expressed as g, indicates the force of the von Frey filament to which the animal reacted.

[3] = test system: paclitaxel-induced CIPN in C57BL/6J mice; assay: Treatment of paclitaxel-induced CIPN, mechanical allodynia (von Frey test)
Protocol: Adult male C57BL/6J mice, 8 weeks of age at the beginning of the experiments and weighing 20-30 g, were purchased from The Jackson Laboratory (Bar Harbor, ME). Mice were housed in an AAALAC-accredited facility in groups of four. Food and water were available ad libitum. The mice in each cage were randomly allocated to treatment groups. All studies were conducted by experimenters blinded to the identity of the treatment groups. Experiments were performed during the light cycle (7:00 am to 7:00 pm) and animals were euthanized with CO2 asphyxiation. Studies were approved by the relevant Institutional Animal Care and Use Committee and followed the National Institutes of Health Guidelines for the Care and Use of Laboratory Animals. Animal studies are reported in compliance with the ARRIVE guidelines.
CIPN was induced in mice with three different chemotherapeutic compounds using established protocols (Carozzi et al., Exp Neurol (2010); 226:301-309; Currie et al., PLOS Biol (2019); 17:e3000243; Eldridge et al., Toxicol Pathol (2020); 48:190-201). Each of the three chemotherapeutic compounds were prepared and dosed as follows. • Paclitaxel: paclitaxel (purchased from MilliporeSigma (St. Louis, MO)) was dissolved in a mixture of 1 volume ethanol/1 volume Cremophor EL (EMD Millipore Corp, Burlington, MA)/18 volumes distilled water. Paclitaxel was administered as four intraperitoneal injections of 8 mg/kg paclitaxel (in a volume of 1 ml/100 g body weight) every other day, resulting in a cumulative dose of 32 mg/kg. • Oxaliplatin: Oxaliplatin was dissolved in ddH2O.
Mechanical allodynia was measured at the time points recorded in the figures.
Mechanical allodynia thresholds were determined using von Frey filaments according to an established method (Chaplan et al., J Neurosci Methods (1994); 53:55-63; Bagdas et al., Biochem Pharmacol (2015); 97:590-600). Briefly, mice were placed in a quiet room for 30 min and then were put in a Plexiglas cage with mesh metal flooring and allowed to acclimatise for 30 min before testing. A series of calibrated von Frey filaments (Stoelting, Wood Dale, IL) with incremental stiffness were applied perpendicularly to the paw with sufficient force to cause slight bending and held 2-3 s. This process was repeated at each level of stiffness 5 times, a few seconds apart. Paw withdrawn, licking or shaking were considered positive responses. The mechanical threshold, expressed as g, indicates the force of the von Frey filament to which the animal reacted.
Results are expressed as mean±SEM. […] Analysis of variance (ANOVA) tests were conducted and followed by the Bonferroni post hoc test. Differences were determined to be significant at P<0.05.

[4] = test system: paclitaxel-induced CIPN in C57/BL mice; assay: Prevention of neuropathic pain in paclitaxel mouse model of CIPN, paw withdrawal threshold (von Frey); assay type: in vivo; conditions: day 6 after first paclitaxel (10 mg/kg ip daily x5); PS 8% hydrogel topically to both hind paws 3 times a day for 7 days, started 2 days before paclitaxel
Protocol: In order to establish CIPN, paclitaxel is administered at 10 mg/kg intraperitoneally into C57/BL mice. […] This dosing regimen of paclitaxel produces pain associated with CIPN with time courses that are similar to those of pain after paclitaxel administration in cancer patients.
The first doses were administered 2 days prior to the first administration of paclitaxel.
In particular, a simplified up-down method for estimating paw withdrawal threshold (PWT) using von Frey filaments was used (as described in Bonin et al., Molecular Pain (2014); 10(26):1-10)). The results of the PWT test are expressed as force applied (gm).

[5] = test system: paclitaxel-induced CIPN in C57BL/6J mice; assay: Prevention of paclitaxel-induced CIPN pain, mechanical allodynia (von Frey test); conditions: for mechanical allodynia score, mean±SEM: day 10, PS 8% ointment to hind paws started 2 days before first paclitaxel (8 mg/kg ip every other day x4)
[6] = PS and metabolites in proximal and distal half of the sciatic nerve of mice with paclitaxel-induced PN; assay type: in vivo, mouse; conditions: for concentration at 30 min: mean ± SEM
Protocol: In a separate experiment we studied 8 mice with paclitaxel-induced PN treated with PS 8% ointment 3×/d for 2 wks. Mice were euthanized as above 30 minutes after the last dose of PS. From these mice we harvested both sciatic nerves dividing each into proximal and distal halves, and combined the corresponding halves of every two animals for assay of drug levels.

[7] = Pharmacokinetics and biodistribution of topical PS in normal mice; assay type: in vivo, mouse; conditions: for Cmax: read-out: Cmax, μM mean ± SEM
Protocol: PS 8% ointment was applied topically to each hind paw (50 μl per paw) with gentle rubbing. At 0.5, 1, 3, 5, 12, 18, and 24 h, mice (n=4-5 mice/time point) were euthanized with CO2 inhalation. Blood was drawn immediately after death. Tissues, including paw skin, paw muscle, leg muscle, the sciatic nerve and lumbar DRG bilaterally were dissected quickly, immediately frozen in liquid nitrogen and stored at −80° C. until analyzed.

CIPN model = conditions: Hidaka et al. (2009); cited from earlier work
[8] = test system: oxaliplatin-induced CIPN in C57BL/6J mice; assay: Treatment of oxaliplatin-induced CIPN, mechanical allodynia (von Frey test); assay type: in vivo, mouse
From the text: (§1) Food and water were available ad libitum.
(§2) Results are expressed as mean±SEM. […] Non-compartmental analyses were employed.

[9] = test system: vincristine-induced CIPN in C57BL/6J mice; assay: Treatment of vincristine-induced CIPN, mechanical allodynia (von Frey test); assay type: in vivo, mouse
From the text: as §1, §2

COX-1 = COX-1 (Homo sapiens, UniProt P23219); conditions: cited from earlier work
[10] = test system: paclitaxel-induced CIPN in C57/BL mice; assay: Treatment of established neuropathic pain in paclitaxel mouse model of CIPN, PWT (von Frey); assay type: in vivo; conditions: day 10, about 30 min after last application; paclitaxel 10 mg/kg ip daily x3; PS 8% hydrogel to both hind paws 3 times a day for 10 days, started 2 days after last paclitaxel
Protocol: The first doses were administered 2 days after the last administration of paclitaxel.
The data is expressed as percent change from the respective baseline value.

mice = assay: Safety of PS ointment during the CIPN treatment studies; assay type: in vivo, mouse; conditions: PS ointment thrice daily to hind paws for up to 22 days
From the text: This finding is in keeping with the known safety profile of PS.

COX-2 = target: T1, COX-2 (Homo sapiens, UniProt P35354); conditions: cited from earlier work
T1 sequence (P35354 18-604): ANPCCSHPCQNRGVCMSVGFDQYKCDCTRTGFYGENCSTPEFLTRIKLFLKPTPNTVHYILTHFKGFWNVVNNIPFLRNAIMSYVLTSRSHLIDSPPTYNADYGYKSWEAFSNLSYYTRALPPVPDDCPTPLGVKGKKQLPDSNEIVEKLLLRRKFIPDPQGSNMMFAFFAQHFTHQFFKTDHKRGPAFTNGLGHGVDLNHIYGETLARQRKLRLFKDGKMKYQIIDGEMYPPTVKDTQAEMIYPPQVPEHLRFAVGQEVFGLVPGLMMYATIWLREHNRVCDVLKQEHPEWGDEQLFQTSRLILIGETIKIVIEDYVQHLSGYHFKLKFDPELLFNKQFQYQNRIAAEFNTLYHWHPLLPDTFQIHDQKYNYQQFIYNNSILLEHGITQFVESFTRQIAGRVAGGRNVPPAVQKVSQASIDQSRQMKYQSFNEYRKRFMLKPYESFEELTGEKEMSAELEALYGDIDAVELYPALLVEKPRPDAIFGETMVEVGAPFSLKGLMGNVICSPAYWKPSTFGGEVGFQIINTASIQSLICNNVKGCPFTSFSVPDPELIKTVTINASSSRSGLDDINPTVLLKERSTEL

[11] = mouse, in vivo, Distal half of the sciatic nerve
[12] = mouse, in vivo, Proximal half of the sciatic nerve, μM
[13] = 30 min after last dose, PS 8% ointment 3x/d for 2 wks
[14] = 30 min after last dose, mice with paclitaxel-induced PN, PS 8% ointment 3x/d for 2 wks
[15] = DRG (dorsal root ganglia), normal mice, PS 8% ointment topically 50 μl per hind paw
[16] = SN (sciatic nerve), normal mice, PS 8% ointment topically 50 μl per hind paw
[17] = leg muscle, normal mice, PS 8% ointment topically 50 μl per hind paw
[18] = paw muscle, normal mice, PS 8% ointment topically 50 μl per hind paw
[19] = paw skin, normal mice, PS 8% ointment topically 50 μl per hind paw

COX-1, sequence (P23219 24-599): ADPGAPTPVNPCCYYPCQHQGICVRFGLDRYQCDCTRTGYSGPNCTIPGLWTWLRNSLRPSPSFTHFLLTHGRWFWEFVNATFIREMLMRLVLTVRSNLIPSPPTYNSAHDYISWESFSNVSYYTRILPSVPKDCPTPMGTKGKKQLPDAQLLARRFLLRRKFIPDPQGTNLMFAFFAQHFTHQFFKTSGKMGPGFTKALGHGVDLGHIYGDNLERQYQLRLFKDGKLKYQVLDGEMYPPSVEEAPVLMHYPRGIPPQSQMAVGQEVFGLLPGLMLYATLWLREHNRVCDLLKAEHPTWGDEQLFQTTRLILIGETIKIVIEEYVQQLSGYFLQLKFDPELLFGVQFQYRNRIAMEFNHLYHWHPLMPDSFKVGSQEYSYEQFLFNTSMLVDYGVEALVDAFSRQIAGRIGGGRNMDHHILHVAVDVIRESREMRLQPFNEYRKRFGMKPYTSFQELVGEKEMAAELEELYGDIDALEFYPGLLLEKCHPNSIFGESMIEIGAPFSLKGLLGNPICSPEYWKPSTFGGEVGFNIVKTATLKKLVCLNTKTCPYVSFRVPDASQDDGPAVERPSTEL

CC(=O)O[C@H]1C(=O)[C@@]2(C)[C@H]([C@H](OC(=O)c3ccccc3)[C@]3(O)C[C@H](OC(=O)[C@H](O)[C@@H](NC(=O)c4ccccc4)c4ccccc4)C(C)=C1C3(C)C)[C@]1(OC(C)=O)CO[C@@H]1C[C@@H]2O [Paclitaxel, paclitaxel, reference compound]
cold allodynia score (acetone test), Mean±SEM ([1]; after paclitaxel treatment (4.5±0.24 sec before)): 7.1 ± 0.4 s
mechanical allodynia score, mean±SEM ([2]; day 0, CIPN fully established after paclitaxel (1.83±0.14 g before paclitaxel)): 0.55 ± 0.05 g
reduction of mechanical allodynia scores by the chemotherapeutic ([3]; paclitaxel administered over 12 days, vs baseline): ~85%
PWT, gm Mean ± SEM [4]: 0.3 ± 0.01 gm
mechanical allodynia score lower than solvent control ([5]; day 10, paclitaxel group vs control): 53%
mechanical allodynia score, mean±SEM [5]: 0.7 ± 0.17 g

CSc1ccc(/C=C2/C(C)=C(CC(=O)O)c3cc(F)ccc32)cc1 [Sulindac sulfide, sulindac sulfide]
Fold difference (distal vs proximal half of sciatic nerve) ([6]; mouse, in vivo, 30 min): 4.5-8.5
concentration at 30 min [6, 11]: 3.5 ± 1 µM
concentration at 30 min [6, 12]: 0 µM

CC1=C(CC(=O)O)c2cc(F)ccc2/C1=C\c1ccc(S(C)(=O)=O)cc1 [Sulindac sulfone, sulindac sulfone]
Distal half of the sciatic nerve, mean ± SEM ([6]; mouse, in vivo): 0.9 ± 0.2 µM
Proximal half of the sciatic nerve, μM, mean ± SEM ([6]; mouse, in vivo): 0.2 ± 0.08 µM

CC1=C(CC(=O)O)c2cc(F)ccc2/C1=C\c1ccc([S+](C)[O-])cc1 (stereo not drawn) [Sulindac, sulindac, reference compound]
Fold difference (distal vs proximal half of sciatic nerve) [6, 13]: 8.5
concentration at 30 min [6, 11]: 3.4 ± 1.1 µM
concentration at 30 min [6, 12]: 0.4 ± 0.03 µM
sulindac levels relative to those of PS ([7]; all tissues except the sciatic nerve (higher) and DRG (equal), topical PS 8% ointment): around 25%

CCN(CC)CC(=O)Nc1c(C)cccc1C [lidocaine, reference compound]
PWT, g Mean ± SEM ([2]; 5% lidocaine cream applied once to both hind paws 30 minutes before measurement): 1.48 ± 0.12 g

CC(C(=O)O)c1ccc(CC2CCCC2=O)cc1 (stereo not drawn) [loxoprofen sodium]
reducing pain signalling in CIPN model (CIPN model): ineffective

O=C1[O][Pt]2([NH][C@@H]3CCCC[C@H]3[NH]2)[O]C1=O [oxaliplatin]
reduction of allodynia score by the chemotherapeutic ([8]; at day 0, two study groups respectively): 65% and 56%

CC[C@]1(O)C[C@H]2CN(CCc3c([nH]c4ccccc34)[C@@](C(=O)OC)(c3cc4c(cc3OC)N(C=O)[C@H]3[C@@](O)(C(=O)OC)[C@H](OC(C)=O)[C@]5(CC)C=CCN6CC[C@]43[C@@H]65)C2)C1 [vincristine, reference compound]
mechanical allodynia score, mean±SEM ([9]; day 0, after vincristine, all three groups): 0.7 ± 0.07 g
reduction of mechanical allodynia score by the chemotherapeutic ([9]; day -7 vs day 0, three vincristine groups): 61%-65%

phosphosulindac [PS]
cold allodynia score (acetone test), Mean±SEM ([1]; PS 5% for 15 days after induction of CIPN, day 15, vehicle 9.3±0.7): 3.1 ± 0.4 s
Fold difference (distal vs proximal half of sciatic nerve) [6, 13]: 18.5 and 18.9
Distal half of the sciatic nerve, mean ± SEM [6, 14]: 17 ± 5.1 µM
Proximal half of the sciatic nerve, μM, mean ± SEM [6, 14]: 0.9 ± 0.3 µM
inhibition of COX-1 expression (COX-1): does not inhibit
PWT, g Mean ± SEM ([2]; PS 1.2% to both hind paws 3 times a day from day 0, measured day 14): 0.98 ± 0.06 g
PWT, g Mean ± SEM ([2]; PS hydrogel 5% to both hind paws 3 times a day from day 0, measured day 14): 1.24 ± 0.07 g
mechanical allodynia score, mean±SEM ([3]; day 0 (initiation of topical treatment, CIPN established)): 0.79 ± 0.08 g
mechanical allodynia score, mean±SEM ([3]; day 5, PS 8% ointment to hind paws 3x/day): 1.17 ± 0.07 g
mechanical allodynia score, mean±SEM ([3]; day 16, PS 8% ointment to hind paws 3x/day (paclitaxel only group: no topical treatment)): 2.49 ± 0.18 g
PWT, gm Mean ± SEM [4]: 0.4 ± 0.01 gm
increase of allodynia score compared to day 0 ([9]; PS treatment for 16 days): 114%
mechanical allodynia score, mean±SEM ([9]; day 16, PS 8% ointment to hind paws 3x/day (vincristine alone group: no topical treatment)): 1.5 ± 0.09 g
AUC0-24 h [7, 15]: 4.5 µM·h
Tmax [7, 15]: 18 h
Cmax [7, 15]: 0.3 ± 0.1 µM
AUC0-24 h [7, 16]: 12.0 µM·h
T1/2, h [7, 16]: 57.4 h
Tmax [7, 16]: 0.5 h
Cmax [7, 16]: 0.9 ± 0.1 µM
presence in the systemic circulation ([7]; blood after topical PS 8% ointment, limit of quantitation 0.1 μM for PS): no PS was detected
AUC0-24 h [7, 17]: 171.6 µM·h
T1/2, h [7, 17]: 20.6 h
Tmax [7, 17]: 0.5 h
Cmax [7, 17]: 35 ± 3.6 µM
AUC0-24 h [7, 18]: 411.2 µM·h
T1/2, h [7, 18]: 11.4 h
Tmax [7, 18]: 0.5 h
Cmax [7, 18]: 102 ± 4.6 µM
AUC0-24 h, μM · h [7, 19]: 1,609.8 μM · h
T1/2, h [7, 19]: 16.1 h
Tmax [7, 19]: 0.5 h
Cmax [7, 19]: 195 ± 5.3 µM
t1/2 of the skin and the muscles ([7]; range over paw skin, paw muscle, leg muscle, topical PS 8% ointment): 11.4 to 20.6 h
mechanical allodynia score, mean±SEM ([8]; after PS 8% ointment 3x/day (day 22) vs day -15 baseline): 1.8 ± 0.09 g
PWT, % baseline Mean ± SEM [10]: 102.55 ± 4.92 % baseline
topical or systemic side effects (mice): no topical or systemic side effects
inhibition of COX-2 expression (COX-2): does not inhibit
topical or systemic side effects ([5]; PS ointment, prevention study): no topical or systemic side effects
mechanical allodynia score, mean±SEM [5]: 1.2 ± 0.15 g
